Assays:
[1] = biological target: T1, YbhFSR (Escherichia coli, UniProt P0AFP9+P0AFQ2); parameters: gene ybhS; settings: 100 μg/ml tetracycline, Mg2+ buffer pH 8.0
[2] = biological target: T1, YbhFSR; test: whole-cell ethidium fluorescence efflux, knockout and complemented strains; format: cell-based; parameters: gene ybhS; native transporter in whole cells; ybhF knockout, acrB ybhF double knockout and ybhF overexpression strains compared; YbhG and TolC probably also take part; settings: 2.5 μM EB preloaded, 25 mM glucose, 50 mM KPi pH 7.0, 5 mM MgSO4, 37 °C

Compound	whole-cell tetracycline fluorescence efflux and accumulation, knockout strains [1]	whole-cell ethidium fluorescence efflux, knockout and complemented strains [2]
CN(C)[C@@H]1C(=O)C(C(N)=O)=C(O)[C@@]2(O)C(=O)C3=C(O)c4c(O)cccc4[C@@](C)(O)[C@H]3C[C@@H]12 [tetracycline]	knockout of ybhF decreased the efflux of tetracycline and increased the intracellular accumulation	
CC[n+]1c(-c2ccccc2)c2cc(N)ccc2c2ccc(N)cc21 [ethidium bromide]		the ybhF gene knockout reduced the ethidium efflux capacity

— PMC7190983, “A Putative Efflux Transporter of the ABC Family, YbhFSR, in Escherichia coli Functions in Tetracycline Efflux and Na^+(Li^+)/H^+ Transport” (Frontiers in Microbiology, 2020)
